In one test the target is T1, Adenosine receptor A2b (Homo sapiens, UniProt P29275).
T1 sequence (P29275 whole entry): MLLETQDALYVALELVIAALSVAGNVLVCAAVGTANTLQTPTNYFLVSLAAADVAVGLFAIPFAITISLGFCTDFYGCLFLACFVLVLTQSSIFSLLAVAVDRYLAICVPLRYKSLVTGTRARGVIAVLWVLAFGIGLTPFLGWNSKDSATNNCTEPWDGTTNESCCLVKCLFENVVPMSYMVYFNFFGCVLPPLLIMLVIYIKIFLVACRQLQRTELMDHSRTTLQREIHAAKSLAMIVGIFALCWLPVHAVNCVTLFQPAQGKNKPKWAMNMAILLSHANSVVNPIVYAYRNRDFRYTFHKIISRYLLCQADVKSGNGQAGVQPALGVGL
The test can be described thus: biochemical.

Test [1] deals with T2, Adenosine receptor A2a (Homo sapiens, UniProt P29274). The test can be described thus: biochemical.
Test [2] deals with T3, Adenosine receptor A1 (Homo sapiens, UniProt P30542).
T3 sequence (P30542 whole entry): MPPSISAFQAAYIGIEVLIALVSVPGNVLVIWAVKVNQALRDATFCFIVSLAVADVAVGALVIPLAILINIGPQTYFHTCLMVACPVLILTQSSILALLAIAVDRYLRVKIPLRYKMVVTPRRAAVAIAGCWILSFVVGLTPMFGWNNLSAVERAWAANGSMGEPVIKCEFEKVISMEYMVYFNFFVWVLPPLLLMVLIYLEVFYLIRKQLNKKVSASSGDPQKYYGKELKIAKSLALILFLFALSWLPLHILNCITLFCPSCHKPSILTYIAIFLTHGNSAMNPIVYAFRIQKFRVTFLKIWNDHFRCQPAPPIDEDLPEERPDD
The test can be described thus: biochemical.
Description: Displacement of specific [3H]DPCPX binding at human Adenosine A1 receptor expressed in CHO cells.

The target of another test is T4, Adenosine receptor A3 (Homo sapiens, UniProt P0DMS8).
T4 sequence (P0DMS8 whole entry): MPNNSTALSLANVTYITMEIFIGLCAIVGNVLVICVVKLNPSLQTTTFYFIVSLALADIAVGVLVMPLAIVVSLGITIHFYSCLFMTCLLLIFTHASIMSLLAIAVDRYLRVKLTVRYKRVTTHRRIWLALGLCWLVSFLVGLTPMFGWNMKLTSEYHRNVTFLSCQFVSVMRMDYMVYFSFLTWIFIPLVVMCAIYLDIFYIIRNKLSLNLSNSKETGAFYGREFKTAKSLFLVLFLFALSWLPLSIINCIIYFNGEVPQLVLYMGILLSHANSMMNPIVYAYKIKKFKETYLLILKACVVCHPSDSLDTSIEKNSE
Description: Displacement of specific [3H]MRE3008-F20 binding at human adenosine A3 receptor expressed in CHO cells. In kind it is cell-based.

The target in test [3] is T2, Adenosine receptor A2a. Description: biochemical. This is another data set of the same source.
The target in test [4] is T3, Adenosine receptor A1. The test can be described thus: Displacement of [3H]DPCPX from human Adenosine A1 receptor expressed in CHO cells; ranges from 324-420. In kind it is cell-based. Background: Loss of bound radioactivity is the signal in a displacement assay; it reports binding, not function.
Test [5] concerns the target T3, Adenosine receptor A1. The test can be described thus: Displacement of [3H]DPCPX binding at human Adenosine A1 receptor expressed in CHO cells; ranges from 8783-9911. In kind it is cell-based.
The target in test [6] is T2, Adenosine receptor A2a. Description: Displacement of [3H]-SCH- 58261 binding at human Adenosine A2A receptor expressed in HEK293 cells; ranges from 48.9-52.4. The test is classed as cell-based.
Test [7] addresses T3, Adenosine receptor A1. Description: Displacement of [3H]-DPCPX binding at human Adenosine A1 receptor expressed in CHO cells; ranges from 9257-9817. In kind it is cell-based.
The target in test [8] is T2, Adenosine receptor A2a. Description: Displacement of [3H]-SCH- 58261 binding at human Adenosine A2A receptor expressed in HEK293 cells; ranges from 98-144. In kind it is cell-based.
The target in test [9] is T3, Adenosine receptor A1. Description: Displacement of [3H]DPCPX binding at human Adenosine A1 receptor expressed in CHO cells; ranges from 363-514. In kind it is cell-based.
Test [10] deals with T2, Adenosine receptor A2a. Description: biochemical. This is another data set of the same source.
The target in test [11] is T2, Adenosine receptor A2a. Description: Displacement of [3H]-SCH- 58261 binding at human Adenosine A2A receptor expressed in HEK293 cells; ranges from 49-72. In kind it is cell-based.
The target in test [12] is T3, Adenosine receptor A1. The test can be described thus: Displacement of [3H]DPCPX from human Adenosine A1 receptor expressed in CHO cells; ranges from 3420-3788. The test is classed as cell-based.
Test [13] has as its target T2, Adenosine receptor A2a. The test can be described thus: Displacement of [3H]-SCH- 58261 from human Adenosine A2A receptor expressed in HEK293 cells; ranges from 4.95-6.08. The test is classed as cell-based.
Test [14] deals with T3, Adenosine receptor A1. Description: Displacement of [3H]DPCPX from human Adenosine A1 receptor expressed in CHO cells; ranges from 1460-2201. In kind it is cell-based.

T2 sequence (P29274 whole entry): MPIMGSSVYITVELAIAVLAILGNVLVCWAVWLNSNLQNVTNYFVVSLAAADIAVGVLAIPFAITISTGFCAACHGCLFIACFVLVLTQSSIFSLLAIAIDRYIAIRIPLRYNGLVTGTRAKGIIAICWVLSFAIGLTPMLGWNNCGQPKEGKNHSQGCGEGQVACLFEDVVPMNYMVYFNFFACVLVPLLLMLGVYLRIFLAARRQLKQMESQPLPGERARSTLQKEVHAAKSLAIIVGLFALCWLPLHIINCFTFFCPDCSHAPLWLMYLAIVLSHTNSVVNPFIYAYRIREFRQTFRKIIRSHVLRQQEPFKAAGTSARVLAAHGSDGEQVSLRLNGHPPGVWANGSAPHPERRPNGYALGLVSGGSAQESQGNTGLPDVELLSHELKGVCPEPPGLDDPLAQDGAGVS
Description for Adenosine receptor A2b: Displacement of specific [3H]DPCPX binding at human adenosine A2B receptor expressed in HEK293 cells.

For orientation: Ki means the dissociation constant of the complex between target and ligand, obtained from inhibition or displacement. A higher Ki goes with weaker binding. In the case of `Nc1nc2c(cnn2CCCc2ccc(C(=O)O)cc2)c2nc(-c3ccco3)nn12`, the Ki is more than 10 µM on Adenosine receptor A2b, 0.0044 µM on Adenosine receptor A2a [1], 4.96 µM on Adenosine receptor A1 [2] and more than 10 µM at Adenosine receptor A3.
Consider `N/C(=N/O)c1ccc(CCCn2ncc3c2nc(N)n2nc(-c4ccco4)nc32)cc1`, for which the Ki at Adenosine receptor A2b was more than 10 µM; at Adenosine receptor A2a [1] it was 0.006 µM; at Adenosine receptor A1 [2], 0.06 µM; at Adenosine receptor A3, more than 10 µM.
With `CN1CCN(S(=O)(=O)c2ccc(CCn3ncc4c3nc(N)n3nc(-c5ccco5)nc43)cc2)CC1`, the Ki at Adenosine receptor A2a [3] is 0.0038 µM; at Adenosine receptor A2b, more than 10 µM; at Adenosine receptor A1 [4], 0.369 µM; on Adenosine receptor A3, more than 10 µM.
In the case of `Nc1nc2c(cnn2CCc2ccc(S(=O)(=O)NCC(=O)O)cc2)c2nc(-c3ccco3)nn12`, the Ki on Adenosine receptor A2b was more than 10 µM; at Adenosine receptor A1 [5], 9.33 µM; on Adenosine receptor A3, more than 10 µM; on Adenosine receptor A2a [6], 0.05 µM.
In the case of `Nc1nc2c(cnn2CCCc2ccc([N+](=O)[O-])cc2)c2nc(-c3ccco3)nn12`, the Ki on Adenosine receptor A2b is more than 10 µM; at Adenosine receptor A2a [1], 0.001 µM; on Adenosine receptor A1 [2], 1.03 µM; on Adenosine receptor A3, more than 10 µM.
Take `Nc1nc2c(cnn2CCCc2ccccc2)c2nc(-c3ccco3)nn12` [SCH-63390]: the Ki on Adenosine receptor A2b is more than 10 µM; on Adenosine receptor A2a [1] it was 0.0012 µM; at Adenosine receptor A1 [2], 0.35 µM.
`Nc1nc2c(cnn2CCc2ccc(S(=O)(=O)N(CCCl)CCCl)cc2)c2nc(-c3ccco3)nn12`: the Ki is more than 10 µM on Adenosine receptor A2b, 0.00059 µM on Adenosine receptor A2a [1], 5.3 µM on Adenosine receptor A1 [2] and more than 10 µM at Adenosine receptor A3.
For `N#Cc1ccc(CCCn2ncc3c2nc(N)n2nc(-c4ccco4)nc32)cc1`, the Ki at Adenosine receptor A2b was more than 10 µM; on Adenosine receptor A2a [1], 0.086 µM; on Adenosine receptor A1 [2], 6.5 µM; at Adenosine receptor A3, more than 10 µM.
As to `Nc1nc2c(cnn2CCCc2ccc3c(c2)OC(C(=O)O)(C(=O)O)O3)c2nc(-c3ccco3)nn12`, the Ki is more than 10 µM on Adenosine receptor A2b, more than 10 µM at Adenosine receptor A3, 9.53 µM at Adenosine receptor A1 [7] and 0.12 µM at Adenosine receptor A2a [8].
Consider `CCOC(=O)c1ccc(CCCn2ncc3c2nc(N)n2nc(-c4ccco4)nc32)cc1`, for which the inhibitory constant (Ki) on Adenosine receptor A2b is more than 10 µM; on Adenosine receptor A2a [1], 0.004 µM; on Adenosine receptor A1 [2], 4.49 µM; on Adenosine receptor A3, more than 10 µM.
Turning to `Nc1nc2c(cnn2CCCc2ccc3c(c2)OC(CO)(CO)O3)c2nc(-c3ccco3)nn12`, the Ki on Adenosine receptor A1 [9] was 0.432 µM; on Adenosine receptor A2b, more than 10 µM; on Adenosine receptor A2a [10] it was 0.00019 µM; at Adenosine receptor A3, more than 10 µM.
In the case of `Nc1nc2c(cnn2CCCc2ccc3c(c2)O[C@H](C(=O)O)O3)c2nc(-c3ccco3)nn12`, the Ki on Adenosine receptor A2a [11] was 0.059 µM; on Adenosine receptor A2b, more than 10 µM; at Adenosine receptor A3, more than 10 µM; on Adenosine receptor A1 [12] it was 3.6 µM.
For `CCOC(=O)[C@@H]1Oc2ccc(CCCn3ncc4c3nc(N)n3nc(-c5ccco5)nc43)cc2O1`, the Ki on Adenosine receptor A2a [13] is 0.00548 µM; at Adenosine receptor A2b, more than 10 µM; at Adenosine receptor A1 [14], 1.79 µM; on Adenosine receptor A3, more than 10 µM.
For the compound `Nc1nc2c(cnn2CCCc2ccc(N(CCO)CCO)cc2)c2nc(-c3ccco3)nn12`, the Ki is more than 10 µM on Adenosine receptor A2b, 0.0011 µM at Adenosine receptor A2a [1], 0.558 µM on Adenosine receptor A1 [2] and more than 10 µM at Adenosine receptor A3.

The record behind these values is ChEMBL document CHEMBL1135389, “7-Substituted 5-amino-2-(2-furyl)pyrazolo[4,3-e]-1,2,4-triazolo[1,5-c]pyrimidines as A2A adenosine receptor antagonists: a study on the importance of modifications at the side chain on the activity and solubility” (J Med Chem, 2002).
